IC50 data for 50 compounds are collected here from patent publication US20220281831A1, “FUSED-GLUTARIMIDE CRBN LIGANDS AND USES THEREOF” (Kymera Therapeutics, Inc., priority 2019, published 2022).

Assay [1] concerns the target His-tagged CRBN-DDB1 complex (Homo sapiens, UniProt Q96SW2). The experiment in a line: Time-Resolved Fluorescence Resonance Energy Transfer (TR-FRET / HTRF) CRBN binding assay, displacement of Cy5-labeled thalidomide. Conditions: His-CRBN-DDB1, Cy5-thalidomide 8 nM, 1 hour room temperature. Background: In TR-FRET formats the signal depends on donor and acceptor labels being close together.

In another assay the target is CRBN-DDB1 (Homo sapiens, UniProt Q96SW2). The experiment in a line: Fluorescence Polarization (FP) CRBN binding assay, probe TM-493 (FAM-BB-100). Conditions: CRBN-DDB1, TM-493 probe, 60 min room temperature. As for the experimental part:
Fluorescence Polarization (FP) Assay
Materials: PerkinElmer EnVision 2104 Multilabel Reader, PerkinElmer FITC FP dual emission Label 2100-8060, Corning 384-well microplate #4514, V-CMR-TM-493 (FAM-BB-100), and CRBN-DDB1-180605.
Methods: Dilution buffer (50 mM HEPES-Na pH 7.5, 100 mM NaCl, 2 mM DTT, and 0.005% Tween-20) and compound DMSO dilutions were prepared. 4× compound working solutions were made with 8% DMSO (4×) and 13.8 μL/well of dilution buffer was placed in a new 96-well plate and 1.2 μL/well of above compound DMSO dilutions were added to the wells. 40 nM (4×) TM-493 in dilution buffer was prepared from a 10 μM DMSO stock and 15 μL per well of the TM-493 working solution was transferred into the compound working solution. 160 nM (2×) CRBN-DDB1 working solution was prepared with Dilution Buffer and 10 μL/well were added into a 384-well plate. 10 μL per well of the TM-493/compound mixture were transferred into the 384-well plate. The “positive control” was sample without protein and compound in 2% DMSO. After incubation at room temperature for 60 min, data was collected and read on data on an EnVision with the following setting: Excitation Light (%): 100; Measurement Height: 9.4; G-Factor: 1; Detector Gain 1: 200; Detector Gain 2: 200; Flash Number: 100. Data was processed using GraphPad Prism 7.0
The compound numbers correspond to the compound numbers in Table 1.

Bounds are passed on as bounds.

Sequence of CRBN-DDB1 (Q96SW2 whole entry): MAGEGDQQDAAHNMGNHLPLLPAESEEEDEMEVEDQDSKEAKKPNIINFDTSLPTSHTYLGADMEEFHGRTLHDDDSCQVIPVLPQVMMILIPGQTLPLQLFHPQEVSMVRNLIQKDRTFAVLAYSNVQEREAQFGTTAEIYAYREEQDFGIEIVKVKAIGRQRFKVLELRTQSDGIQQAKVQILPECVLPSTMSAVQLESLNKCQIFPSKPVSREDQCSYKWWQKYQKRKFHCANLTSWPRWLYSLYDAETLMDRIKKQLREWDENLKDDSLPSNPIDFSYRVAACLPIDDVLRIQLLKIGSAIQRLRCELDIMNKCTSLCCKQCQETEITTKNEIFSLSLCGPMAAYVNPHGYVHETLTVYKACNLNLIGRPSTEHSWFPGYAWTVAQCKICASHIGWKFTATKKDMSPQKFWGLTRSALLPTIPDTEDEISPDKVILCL
Sequence of CRBN-DDB1 (Q16531 whole entry partner): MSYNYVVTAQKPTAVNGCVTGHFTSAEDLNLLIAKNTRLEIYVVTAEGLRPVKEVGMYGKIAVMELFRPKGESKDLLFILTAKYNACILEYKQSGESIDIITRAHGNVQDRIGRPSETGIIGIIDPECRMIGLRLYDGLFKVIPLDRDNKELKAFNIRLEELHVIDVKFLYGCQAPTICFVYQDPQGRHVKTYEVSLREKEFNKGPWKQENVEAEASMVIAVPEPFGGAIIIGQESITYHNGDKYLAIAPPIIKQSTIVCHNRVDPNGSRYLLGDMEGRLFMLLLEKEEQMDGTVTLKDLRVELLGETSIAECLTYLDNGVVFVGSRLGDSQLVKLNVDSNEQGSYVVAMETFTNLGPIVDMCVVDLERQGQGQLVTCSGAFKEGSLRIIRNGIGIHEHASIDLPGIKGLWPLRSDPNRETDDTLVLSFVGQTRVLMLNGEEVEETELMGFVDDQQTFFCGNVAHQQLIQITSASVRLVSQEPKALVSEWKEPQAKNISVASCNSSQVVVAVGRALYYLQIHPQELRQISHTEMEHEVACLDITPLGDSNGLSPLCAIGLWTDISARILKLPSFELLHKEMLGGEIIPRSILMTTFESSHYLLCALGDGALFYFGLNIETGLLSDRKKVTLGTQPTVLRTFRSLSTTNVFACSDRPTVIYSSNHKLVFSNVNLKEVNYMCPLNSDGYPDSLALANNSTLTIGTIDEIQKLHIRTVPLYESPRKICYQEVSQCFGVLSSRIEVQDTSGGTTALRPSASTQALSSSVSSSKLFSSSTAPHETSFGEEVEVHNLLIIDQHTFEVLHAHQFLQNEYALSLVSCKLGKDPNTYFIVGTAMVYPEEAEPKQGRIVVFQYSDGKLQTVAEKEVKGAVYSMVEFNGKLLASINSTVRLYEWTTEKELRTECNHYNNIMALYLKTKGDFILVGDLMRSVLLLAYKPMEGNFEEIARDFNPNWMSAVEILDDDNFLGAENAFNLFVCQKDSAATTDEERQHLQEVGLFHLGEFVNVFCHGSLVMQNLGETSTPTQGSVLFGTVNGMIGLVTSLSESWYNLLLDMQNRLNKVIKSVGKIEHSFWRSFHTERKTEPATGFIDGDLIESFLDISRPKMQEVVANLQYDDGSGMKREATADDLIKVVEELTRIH
Sequence of His-tagged CRBN-DDB1 complex (Q96SW2 whole entry): as the sequence (Q96SW2 whole entry) above
Sequence of His-tagged CRBN-DDB1 complex (Q16531 whole entry partner): as the sequence (Q16531 whole entry partner) above

The IC50 is the point on the concentration scale where inhibition reaches its midpoint. Regarding `NCCCCCCCc1ccc(Oc2cccc3c2C(=O)NC(=O)C3)cc1` [Compound I-250], the IC50 (in assay [1]; on CRBN-DDB1) was below 10 µM each time.

In the case of `O=C1Cc2cccc(-n3ccccc3=O)c2C(=O)N1` [Compound I-194], the IC50 in assay [1] fell in the range of 10 to 30 µM; at CRBN-DDB1 it was 30 to 100 µM.

As to `CC(C)(C)OC(=O)NCCCCCCCC#Cc1ccc(Oc2cccc3c2C(=O)NC(=O)C3)cc1` [Compound I-232], the IC50 (in assay [1]; on CRBN-DDB1) was above 100 µM throughout.

For the compound `O=C1C[C@@]2(CCc3c([N+](=O)[O-])cccc32)C(=O)N1` [Compound I-197], the IC50 (in assay [1]; at CRBN-DDB1) was above 100 µM each time.

As to `Cc1ccc2c(c1)CC(=O)NC2=O` [Compound I-79], the values for the IC50 (in assay [1]; on CRBN-DDB1) were 30 to 100 µM and above 100 µM, respectively.

As for `Cc1ccccc1-c1cccc2c1C(=O)NC2=O` [Compound I-31, 4-(2-methylphenyl)-2H-isoindole-1,3-dione], the IC50 in assay [1] was 30 to 100 µM; on CRBN-DDB1, above 100 µM.

As to `CCCOc1ccc(N2C[C@@H]3C(=O)NC(=O)[C@@H]3C2)cc1` [Compound I-132], the IC50 was 30 to 100 µM in assay [1] and above 100 µM on CRBN-DDB1.

On to `Cc1ncoc1-c1cccc2c1C(=O)NC2=O` [Compound I-33, 4-(4-methyl-1,3-oxazol-5-yl)-2H-isoindole-1,3-dione], for which the 50% inhibitory concentration (IC50) (in assay [1]; on CRBN-DDB1) was above 100 µM in each case.

In the case of `NCc1cccc2c1C(=O)NC(=O)C2` [Compound I-68], the half-maximal inhibitory concentration (IC50) (in assay [1]; on CRBN-DDB1) was 10 to 30 µM each time.

`O=C1Cc2c(F)cccc2C(=O)N1` [Compound I-72, 5-Fluoro-2,4-dihydroisoquinoline-1,3-dione]: the IC50 is 10 to 30 µM in assay [1] and above 100 µM on CRBN-DDB1.

As to `O=C1NC(=O)[C@@H]2CN(c3ccc(Oc4ccccc4)cc3)C[C@H]12` [Compound I-151], the IC50 in assay [1] is 30 to 100 µM; at CRBN-DDB1, above 100 µM.

In the case of `O=C1NC(=O)C(F)(F)c2cccc(Br)c21` [Compound I-49], the IC50 (in assay [1]; on CRBN-DDB1) was above 100 µM throughout.

On to `NCCCCCCCCCc1ccccc1Oc1cccc2c1C(=O)NC(=O)C2` [Compound I-255], for which the IC50 (in assay [1]; on CRBN-DDB1) was 10 to 30 µM throughout.

Take `O=C1NC(=O)c2cc(Oc3ccccc3)ccc2C1=O` [Compound I-238]: the IC50 (in assay [1]; on CRBN-DDB1) was 30 to 100 µM each time.

For `Nc1ccc2c(c1)C(=O)NC(=O)C2` [Compound I-12], the values for the IC50 (in assay [1]; at CRBN-DDB1) were below 10 µM and 10 to 30 µM, respectively.

Take `O=C1Cc2cccc(O)c2C(=O)N1` [Compound I-23]: the IC50 in assay [1] is 10 to 30 µM; on CRBN-DDB1, 30 to 100 µM.

As for `CC(C)(C)OC(=O)NCCCc1cccc(Oc2cccc3c2C(=O)NC(=O)C3)c1` [Compound I-220], the values for the concentration for half-maximal inhibition (IC50) (in assay [1]; on CRBN-DDB1) were 10 to 30 µM and 30 to 100 µM, respectively.

For the compound `CC(C)(C)OC(=O)NCCCCCc1ccc(Oc2cccc3c2C(=O)NC(=O)C3)cc1` [Compound I-229], the half-maximal inhibitory concentration (IC50) (in assay [1]; at CRBN-DDB1) was above 100 µM throughout.

As to `Cc1ncoc1-c1ccc2c(c1)C(=O)NC(=O)C2` [Compound I-6, 7-(4-Methyl-1,3-oxazol-5-yl)-2,4-dihydroisoquinoline-1,3-dione], the IC50 (in assay [1]; on CRBN-DDB1) was above 100 µM each time.

For `NCCCC#Cc1ccc(Oc2cccc3c2C(=O)NC(=O)C3)cc1` [Compound I-265], the IC50 (in assay [1]; on CRBN-DDB1) was below 10 µM throughout.

In the case of `O=C1Cc2cccc(Oc3cccc4ccccc34)c2C(=O)N1` [Compound I-275], the IC50 (in assay [1]; at CRBN-DDB1) was 10 to 30 µM throughout.

For the compound `Nc1ccc2c(c1)C1(CC(=O)NC1=O)NC2=O` (stereo not shown) [Compound I-175], the IC50 (in assay [1]; on CRBN-DDB1) was above 100 µM each time.

As for `O=C1Cc2cccc(COc3ccccc3)c2C(=O)N1` [Compound I-277], the IC50 (in assay [1]; at CRBN-DDB1) was 10 to 30 µM in each case.

With `COc1cc(F)ccc1N1C[C@@H]2C(=O)NC(=O)[C@@H]2C1` [Compound I-124], the IC50 is 30 to 100 µM in assay [1] and above 100 µM on CRBN-DDB1.

With `CC(C)(C)OC(=O)NCCCC#Cc1ccc(Oc2cccc3c2C(=O)NC(=O)C3=O)cc1` [Compound I-239], the IC50 (in assay [1]; on CRBN-DDB1) was below 10 µM each time.

Regarding `CC(=O)NCc1cccc(Oc2cccc3c2C(=O)NC(=O)C3)c1` [Compound I-268], the results for the IC50 (in assay [1]; at CRBN-DDB1) were 30 to 100 µM and 10 to 30 µM, respectively.

With `CC(=O)Nc1cccc2c1C(=O)NC(=O)C2` [Compound I-42], the 50% inhibitory concentration (IC50) lay within 10 to 30 µM in assay [1] and 30 to 100 µM at CRBN-DDB1.

Regarding `O=C1NC(=O)[C@@H]2CN(Cc3ccc(-c4ccccc4)cc3)C[C@H]12` [Compound I-319], the IC50 in assay [1] was 30 to 100 µM; on CRBN-DDB1, above 100 µM.

For the compound `O=C1Cc2nccc(Oc3ccccc3)c2C(=O)N1` [Compound I-236], the IC50 (in assay [1]; on CRBN-DDB1) was above 100 µM throughout.

On to `O=C1Cc2ccc(O)cc2C(=O)N1` [Compound I-19, 7-hydroxy-2,4-dihydroisoquinoline-1,3-dione], for which the IC50 in assay [1] is below 10 µM; on CRBN-DDB1 it was above 100 µM.

Turning to `O=C1Cc2ccccc2C(=O)N1` [Compound I-5, 2,4-Dihydroisoquinoline-1,3-dione], the IC50 was above 100 µM in assay [1] and 30 to 100 µM at CRBN-DDB1.

As to `CC(C)(C)OC(=O)NCCCc1ccc(Oc2cccc3c2C(=O)NC(=O)C3)cc1` [Compound I-227], the results for the concentration for half-maximal inhibition (IC50) (in assay [1]; at CRBN-DDB1) were below 10 µM and above 100 µM, respectively.

Regarding `O=C1Cc2cccc(Oc3ccccc3F)c2C(=O)N1` [Compound I-200, 8-(2-Fluorophenoxy)-2,4-dihydroisoquinoline-1,3-dione], the IC50 (in assay [1]; on CRBN-DDB1) was below 10 µM in each case.

For `O=c1[nH]c(=O)c2cc(Br)ccc2o1` [Compound I-53, 6-Bromo-3H-1,3-benzoxazine-2,4-dione], the IC50 (in assay [1]; at CRBN-DDB1) was above 100 µM in each case.

For the compound `NC(=O)c1ccccc1-c1cccc2c1C(=O)NC(=O)C2` [Compound I-2, 2-(1,3-Dioxo-2,4-dihydroisoquinolin-8-yl)benzamide], the IC50 in assay [1] is above 100 µM; at CRBN-DDB1 it was 30 to 100 µM.

Regarding `NCCCCCCCCCc1ccc(Oc2cccc3c2C(=O)NC(=O)C3)cc1` [Compound I-251], the IC50 (in assay [1]; on CRBN-DDB1) was below 10 µM in each case.

On to `O=C1Cc2cccc(Nc3ccccc3)c2C(=O)N1` [Compound I-27, 8-(Phenylamino)-2,4-dihydroisoquinoline-1,3-dione], for which the IC50 (in assay [1]; at CRBN-DDB1) was 30 to 100 µM in each case.

Turning to `N#Cc1ccccc1-c1cccc2c1C(=O)NC(=O)C2` [Compound I-52, 2-(1,3-Dioxo-2,4-dihydroisoquinolin-8-yl)benzonitrile], the IC50 (in assay [1]; on CRBN-DDB1) was 30 to 100 µM in each case.

For `NCCCCCc1ccccc1Oc1cccc2c1C(=O)NC(=O)C2` [Compound I-254], the IC50 in assay [1] was in the range of 10 to 30 µM; on CRBN-DDB1, 30 to 100 µM.

On to `O=C1Cc2cccc(Oc3ccccc3)c2C(=O)N1` [Compound I-26, 8-phenoxy-2,4-dihydroisoquinoline-1,3-dione], for which the IC50 (in assay [1]; at CRBN-DDB1) was below 10 µM throughout.

In the case of `CC(C)(C)OC(=O)NCCCCCCCCCc1ccc(Oc2cccc3c2C(=O)NC(=O)C3=O)cc1` [Compound I-241], the IC50 is below 10 µM in assay [1] and 30 to 100 µM at CRBN-DDB1.

Consider `O=C1NC(=O)C2(CC2)c2cccc(Br)c21` [Compound I-58, 8′-Bromo-2′H-spiro[cyclopropane-1,4′-isoquinoline]-1′,3′-dione], for which the IC50 (in assay [1]; on CRBN-DDB1) was above 100 µM each time.

Take `CN1C(=O)Cc2cccc(Oc3ccccc3)c2C1=O` [Compound I-260]: the IC50 (in assay [1]; at CRBN-DDB1) was above 100 µM in each case.

With `CC(C)(C)OC(=O)NCCCCCCCc1ccccc1Oc1cccc2c1C(=O)NC(=O)C2=O` [Compound I-252], the half-inhibitory concentration (IC50) in assay [1] fell in the range of 10 to 30 µM; on CRBN-DDB1 it was 30 to 100 µM.

Regarding `CC(C)(C)OC(=O)NCCCCCCCc1ccc(Oc2cccc3c2C(=O)NC(=O)C3)cc1` [Compound I-231], the half-maximal inhibitory concentration (IC50) (in assay [1]; on CRBN-DDB1) was above 100 µM throughout.

For the compound `NCCCCCc1cccc(Oc2cccc3c2C(=O)NC(=O)C3)c1` [Compound I-246], the IC50 (in assay [1]; at CRBN-DDB1) was below 10 µM in each case.

Regarding `NCCCCCC#Cc1cccc(Oc2cccc3c2C(=O)NC(=O)C3)c1` [Compound I-247], the IC50 was below 10 µM in assay [1] and 10 to 30 µM on CRBN-DDB1.

Take `Cc1cc2c(c(Oc3ccccc3)c1)C(=O)NC(=O)C2` [Compound I-203, 6-Methyl-8-phenoxy-2,4-dihydroisoquinoline-1,3-dione]: the IC50 (in assay [1]; on CRBN-DDB1) was below 10 µM each time.

As for `CC(C)(C)OC(=O)NCCCCCc1cccc(Oc2cccc3c2C(=O)NC(=O)C3)c1` [Compound I-222], the IC50 (in assay [1]; at CRBN-DDB1) was 30 to 100 µM each time.

On to `COc1ccccc1-c1ccc2c(c1)C(=O)NC(=O)C2` [Compound I-18, 7-(2-Methoxyphenyl)-2,4-dihydroisoquinoline-1,3-dione], for which the IC50 in assay [1] was above 100 µM; on CRBN-DDB1 it was 30 to 100 µM.
